# Values of other authors as cited in patent US11413271B2, “Oral eliglustat transmucosal delivery system” (ABON PHARMACEUTICALS LLC., priority 2018, dated 2022).
compound,measurement,setting,value
CCCCCCCC(=O)N[C@H](CN1CCCC1)[C@H](O)c1ccc2c(c1)OCCO2 [eliglustat],Bioavailability in EMs (estimated),CYP2D6 extensive metabolizers,about 4.17%
same,Increase of systemic exposure (AUC0-12) at steady state compared to after the first dose (AUC0-∞),multiple oral doses of 84 mg twice daily in EMs,up to 2 fold
